Measured values taken from publication PMC8976226 (Mutagenesis, 2022).
Counter-ions that a name gives are not always drawn. Like-named read-outs stand apart in the source and are kept apart here.

What was measured:
[1] = system: human peripheral lymphocytes; conditions: cited from earlier work
[2] = system: L5178 TK +/− cell; conditions: cited from earlier work
[3] = system: GADD45a gene; experiment: BlueScreen HC assay; conditions: fragrance materials, TK6 cells
[4] = system: Salmonella typhimurium, Escherichia coli tester strains; conditions: cited from earlier work
[5] = system: mammalian cell; experiment: In vitro mammalian cell micronucleus test; type: cell-based; conditions: overall outcome in current dataset
[6] = weight of evidence of all available in vitro and in vivo data
[7] = system: mouse; conditions: cited from earlier work
[8] = system: Chinese hamster lung, ovary, or fibroblast cells; conditions: ref RIFM Database, cited from earlier work; for chromosomal aberration assay result: Chinese hamster lung, ovary, or fibroblast cells
[9] = system: mice; conditions: cited from earlier work
[10] = system: GADD45a gene; conditions: published fragrance safety assessment; cited from earlier work
[11] = cited from earlier work
[12] = system: Chinese hamster V79 cells; conditions: cited from earlier work
[13] = system: reconstructed skin (EpiDerm™); conditions: cited from earlier work
[14] = system: Salmonella typhimurium, Escherichia coli tester strains; experiment: Bacterial reverse mutation test; type: cell-based; conditions: overall outcome

## COc1ccc(COC=O)cc1 [anisyl formate]
[1]
  in vitro micronucleus assay result: negative
[2]
  mammalian cell line mutagenicity study (MLA/HPRT) result: negative
[3]
  BlueScreen HC result: negative

## CC(C)C(=O)O [Isobutyric acid]
[4]
  Ames test result: negative

## CC12CCCC(C)(CC1)C2=NO [1,5-dimethylbicyclo[3.2.1]octan-8-one-oxime]
[5]
  in vitro MNT result: positive
[6]
  genotoxic potential conclusion (WoE): not genotoxic
[1]; 3- and 24- h time points with and without metabolic activation
  in vitro micronucleus assay result: Positive
[7]
  in vivo micronucleus test result: negative
[3]
  BlueScreen HC result: negative

## COC(=O)c1ccccc1N [methyl anthranilate, Methyl anthranilate]
[8]; Chinese hamster fibroblast cell line (B 241)
  in vitro chromosomal aberration study result: positive
[8]
  chromosomal aberration assay result: positive
[9]
  2-year in vivo carcinogenicity study result: did not show any carcinogenic effects
[3]
  BlueScreen HC result: negative

## CCCCCCC(OCC)OCC [1,1-diethoxyheptane]
[10]
  BlueScreen HC result: negative

## CC(=O)/C=C/C1C(C)=CCCC1(C)C (stereo not drawn) [α-ionone, α-Ionone]
[6]
  genotoxic potential conclusion (WoE): lack genotoxic potential in vivo
[1]; human peripheral lymphocytes
  in vitro micronucleus study result: negative
[8]
  chromosomal aberration assay result: positive
[7]
  in vivo mouse micronucleus study result: negative
[3]
  BlueScreen HC result: negative

## Cc1cccc2nccnc12 [5-methylquinoxaline]
[5]
  in vitro MNT result: positive
[6]
  genotoxic potential conclusion (WoE): devoid of genotoxic activity in vivo
[1]; 4-h treatment
  in vitro micronucleus study result: negative
[1]; without metabolic activation, 24-h treatment
  in vitro micronucleus study result: positive
[11]; two assays
  in vivo micronucleus assays result: negative
[3]
  BlueScreen HC result: negative

## N#C/C=C/c1ccccc1 [cinnamyl nitrile, Cinnamyl nitrile]
[6]
  genotoxic potential conclusion (WoE): lack genotoxic potential in vivo
[12]; Chinese hamster V79 cells
  in vitro micronucleus result: negative
[8]
  chromosomal aberration assay result: positive
[3]
  BlueScreen HC result: negative

## COC1CC2CCC1(C)C2(C)C (stereo not shown) [isobornyl methyl ether]
[5]
  in vitro MNT result: positive
[1]; confirmatory assay, dose response not observed
  in vitro micronucleus confirmatory assay result: increases only at the highest dose level
[1]; presence of metabolic activation, 4-h time point
  in vitro micronucleus study result: positive
[13]
  3D skin micronucleus study result: negative
[3]
  BlueScreen HC result: negative

## COC(=O)CC(C)=O [methyl acetoacetate, Methyl acetoacetate]
[6]
  genotoxic potential conclusion (WoE): lack genotoxic potential in vivo
[1]; human lymphocytes
  in vitro micronucleus result: negative
[8]
  chromosomal aberration assay result: positive
[3]
  BlueScreen HC result: negative

## CC(C)C12CCC(C)(O)C1C2 (stereo not shown) [4-thujanol]
[5]
  in vitro MNT result: positive
[1]; 4-h time point, absence of metabolic activation
  in vitro micronucleus study result: positive
[7]
  in vivo micronucleus study result: negative
[3]
  BlueScreen HC result: negative

## CC(=CC#N)CCc1ccccc1 [3-methyl-5-phenylpent-2-enenitrile]
[5]
  in vitro MNT result: positive
[6]
  genotoxic potential conclusion (WoE): not genotoxic
[12]; 4-h time point with metabolic activation
  in vitro micronucleus assay result: Positive
[7]
  in vivo micronucleus test result: negative
[3]
  BlueScreen HC result: negative

## CC(=O)C1CC(C)=CC(C)C1C (stereo not shown) [1-(3,5,6-trimethyl-3-cyclohexen-1-yl)ethan-1-one]
[14]
  Ames assay result: positive
[4]; Escherichia coli strain WP2uvrA without metabolic activation
  Ames assay result: positive
[4]; similar concentrations, E. coli WP2uvrA or TA102
  Ames assay result, third confirmatory study: no positive effects
[6]
  genotoxic potential conclusion (WoE): unlikely to have genotoxic potential in vivo
[1]
  in vitro micronucleus assay result: negative
[2]
  mammalian cell line mutagenicity study (HPRT) result: negative
[3]
  BlueScreen HC result: negative

## CC(C)CO [isobutyl alcohol]
[11]
  in vivo micronucleus test result: negative
